# Data reported in ChEMBL document CHEMBL3763051, “Inhibition of phosphatidylinositol-3,4,5-trisphosphate binding to the AKT pleckstrin homology domain by 4-amino-1,2,5-oxadiazole derivatives” (Medchemcomm, 2015).
# Activity calls are given as the source filed them. The rule behind the calls is not given here.
# How the values were obtained:
# [1] = target: T1, RAC-alpha serine/threonine-protein kinase (Homo sapiens, UniProt P31749); experiment: Antagonist activity at human AKT1-PH domain (1 to 121 residues) assessed as reduction in PI(3,4,5)P3/AKT1-PH interaction by FRET analysis
# T1 sequence (P31749 whole entry, the tested form may be a part): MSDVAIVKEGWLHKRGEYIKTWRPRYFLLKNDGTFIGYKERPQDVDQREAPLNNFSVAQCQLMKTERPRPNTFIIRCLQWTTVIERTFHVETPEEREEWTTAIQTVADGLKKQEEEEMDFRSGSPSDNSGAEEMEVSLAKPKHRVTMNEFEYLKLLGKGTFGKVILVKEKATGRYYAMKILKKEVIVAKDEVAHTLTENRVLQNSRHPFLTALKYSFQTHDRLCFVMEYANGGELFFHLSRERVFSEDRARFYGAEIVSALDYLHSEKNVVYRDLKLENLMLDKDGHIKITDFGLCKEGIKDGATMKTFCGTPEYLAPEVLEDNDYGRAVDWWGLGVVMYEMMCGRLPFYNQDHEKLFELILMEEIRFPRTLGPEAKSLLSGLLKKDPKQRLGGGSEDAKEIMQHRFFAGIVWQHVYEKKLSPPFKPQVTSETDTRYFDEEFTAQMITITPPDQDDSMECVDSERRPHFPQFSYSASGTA
# [2] = target: T1, RAC-alpha serine/threonine-protein kinase; experiment: Inhibition of AKT1 phosphorylation at Thr-308 in human MDA-MB-231 cells at 25 uM after 48 hrs by immunoblot analysis; type: cell-based
# [3] = target: T2, Tyrosine-protein kinase BTK (Homo sapiens, UniProt Q06187); experiment: Antagonist activity at human BTK-PH domain (2 to 170 residues) assessed as reduction in PI(3,4,5)P3/BTK-PH interaction after 30 mins by competitive SPR analysis
# T2 sequence (Q06187 whole entry, the tested form may be a part): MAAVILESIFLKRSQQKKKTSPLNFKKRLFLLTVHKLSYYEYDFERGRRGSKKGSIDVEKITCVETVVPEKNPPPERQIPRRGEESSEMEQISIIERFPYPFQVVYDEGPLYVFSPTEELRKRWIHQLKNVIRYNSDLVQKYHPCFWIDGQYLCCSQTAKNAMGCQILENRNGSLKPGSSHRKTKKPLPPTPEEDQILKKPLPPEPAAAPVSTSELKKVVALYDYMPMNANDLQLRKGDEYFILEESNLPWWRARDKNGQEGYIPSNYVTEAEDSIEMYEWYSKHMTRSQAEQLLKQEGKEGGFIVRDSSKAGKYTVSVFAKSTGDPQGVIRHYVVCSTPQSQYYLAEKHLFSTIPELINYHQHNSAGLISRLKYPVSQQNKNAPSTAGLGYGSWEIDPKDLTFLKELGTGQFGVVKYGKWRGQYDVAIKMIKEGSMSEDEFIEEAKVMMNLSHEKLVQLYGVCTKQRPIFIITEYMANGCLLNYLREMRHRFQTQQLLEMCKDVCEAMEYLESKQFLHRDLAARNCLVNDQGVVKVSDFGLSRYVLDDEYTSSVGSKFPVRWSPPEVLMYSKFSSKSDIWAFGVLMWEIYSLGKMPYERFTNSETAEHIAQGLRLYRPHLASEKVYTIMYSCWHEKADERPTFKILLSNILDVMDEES
# Cytohesin-3 = target: T3, Cytohesin-3 (Mus musculus, UniProt O08967); experiment: Antagonist activity at mouse GRP1-PH domain (1 to 127 residues) assessed as reduction in PI(3,4,5)P3/GRP1-PH interaction after 30 mins by competitive SPR analysis
# T3 sequence (O08967 whole entry): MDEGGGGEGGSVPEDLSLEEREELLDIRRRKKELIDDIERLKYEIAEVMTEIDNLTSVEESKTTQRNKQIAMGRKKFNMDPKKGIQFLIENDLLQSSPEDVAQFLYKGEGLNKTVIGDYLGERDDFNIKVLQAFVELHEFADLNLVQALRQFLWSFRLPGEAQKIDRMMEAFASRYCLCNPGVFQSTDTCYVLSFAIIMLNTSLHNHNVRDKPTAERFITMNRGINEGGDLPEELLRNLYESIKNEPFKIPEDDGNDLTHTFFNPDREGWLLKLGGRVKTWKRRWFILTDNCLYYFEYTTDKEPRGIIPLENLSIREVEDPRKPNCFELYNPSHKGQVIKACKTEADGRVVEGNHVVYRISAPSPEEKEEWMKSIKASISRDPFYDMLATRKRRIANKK
# [4] = target: T1, RAC-alpha serine/threonine-protein kinase; experiment: Induction of human AKT1-PH aggregration assessed as mean hydrodynamic diameter after 10 mins dynamic light scattering assay
# [5] = Effect on membrane fluidity in PC/PE/PS liposome assessed as NBD-PE probe anisotropy changes at 15 uM incubated for 30 mins by fluorescence anisotropic analysis; type: ADME; details: artificial membrane, 0.5 h
# [6] = Effect on surface charge of PC/PE/PS/PI(3,4,5)P3 liposome by measuring zeta-potential by light scattering spectrometric analysis; type: physicochemical; details: artificial membrane
# [7] = target: T4, 1-phosphatidylinositol 4,5-bisphosphate phosphodiesterase delta-1 (Rattus norvegicus, UniProt P10688); experiment: Antagonist activity at rat PLCdelta1-PH domain assessed as reduction in PI(4,5)P2/PLCdelta1-PH interaction after 30 mins by competitive SPR analysis
# T4 sequence (P10688 whole entry): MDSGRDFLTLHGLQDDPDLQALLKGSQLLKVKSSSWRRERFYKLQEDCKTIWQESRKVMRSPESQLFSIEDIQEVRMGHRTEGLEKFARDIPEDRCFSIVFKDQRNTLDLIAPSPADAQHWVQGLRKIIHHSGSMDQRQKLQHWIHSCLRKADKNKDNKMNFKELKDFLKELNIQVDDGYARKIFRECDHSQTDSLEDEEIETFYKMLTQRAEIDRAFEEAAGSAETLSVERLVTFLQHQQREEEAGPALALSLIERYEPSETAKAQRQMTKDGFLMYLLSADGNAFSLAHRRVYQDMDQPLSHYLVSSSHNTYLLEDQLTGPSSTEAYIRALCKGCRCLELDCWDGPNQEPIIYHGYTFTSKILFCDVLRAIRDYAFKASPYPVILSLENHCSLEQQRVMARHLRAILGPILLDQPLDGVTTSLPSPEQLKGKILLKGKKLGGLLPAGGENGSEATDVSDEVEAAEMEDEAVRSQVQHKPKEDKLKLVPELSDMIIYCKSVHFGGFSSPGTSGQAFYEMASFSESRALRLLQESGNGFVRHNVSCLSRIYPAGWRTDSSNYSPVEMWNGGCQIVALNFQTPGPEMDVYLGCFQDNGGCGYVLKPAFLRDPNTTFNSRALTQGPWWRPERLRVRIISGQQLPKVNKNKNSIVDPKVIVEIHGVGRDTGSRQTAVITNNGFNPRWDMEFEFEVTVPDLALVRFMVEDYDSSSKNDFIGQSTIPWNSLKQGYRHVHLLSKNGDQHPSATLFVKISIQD
# [8] = target: T1, RAC-alpha serine/threonine-protein kinase; experiment: Binding affinity to human AKT1-PH domain assessed as entropy change by isothermal titration calorimetric analysis
# [9] = target: Pleckstrin homology domain-containing family A member 1 (Homo sapiens, UniProt Q9HB21); experiment: Antagonist activity at human Tapp1-PH domain (180 to 305 residues) assessed as reduction in PI(3,4)P2/Tapp1-PH interaction after 30 mins by competitive SPR analysis
# Pleckstrin homology domain-containing family A member 1, sequence (Q9HB21 whole entry, the tested form may be a part): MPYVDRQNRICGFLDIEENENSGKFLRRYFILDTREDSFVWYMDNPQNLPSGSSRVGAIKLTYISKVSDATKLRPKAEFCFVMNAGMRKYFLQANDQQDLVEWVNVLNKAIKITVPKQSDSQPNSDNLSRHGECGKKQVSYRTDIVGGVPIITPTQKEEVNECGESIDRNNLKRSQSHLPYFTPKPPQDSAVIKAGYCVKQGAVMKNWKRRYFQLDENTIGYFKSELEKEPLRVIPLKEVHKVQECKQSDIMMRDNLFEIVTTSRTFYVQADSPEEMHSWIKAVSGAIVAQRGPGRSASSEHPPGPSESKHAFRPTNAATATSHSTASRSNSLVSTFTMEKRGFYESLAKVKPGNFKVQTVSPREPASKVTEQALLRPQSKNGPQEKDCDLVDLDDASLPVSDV
# [10] = target: T1, RAC-alpha serine/threonine-protein kinase; experiment: Antagonist activity at human AKT1-PH domain (1 to 121 residues) assessed as reduction of AKT1-PH interaction with PC/PE/PS/PI(3,4,5)P3 at 50 uM after 30 mins by competitive SPR analysis relative to control
# [11] = target: T1, RAC-alpha serine/threonine-protein kinase; experiment: Antagonist activity at human AKT1-PH domain (1 to 121 residues) assessed as reduction of AKT1-PH interaction with PC/PE/PS/PI(3,4,5)P3 after 30 mins by competitive SPR analysis
# [12] = Cytotoxicity against human MDA-MB-231 cells assessed as inhibition of cell proliferation at 1 to 100 uM after 48 hrs by MTT assay; type: cell-based; details: read-out: %max
# [13] = Effect on membrane fluidity in PC/PE/PS liposome assessed as DPH probe anisotropy changes at 15 uM incubated for 30 mins by fluorescence anisotropic analysis; type: ADME; details: artificial membrane, 0.5 h
# [14] = target: T1, RAC-alpha serine/threonine-protein kinase; experiment: Binding affinity to human AKT1-PH domain assessed as enthalpy change by isothermal titration calorimetric analysis
# [15] = target: T1, RAC-alpha serine/threonine-protein kinase; experiment: Antagonist activity at GST-tagged human AKT1-PH domain (1 to 121 residues) assessed as reduction in PC/PE/PS/PI(3,4,5)P3/AKT1-PH interaction at 50 uM by liposome pull-down assay
# [16] = target: T1, RAC-alpha serine/threonine-protein kinase; experiment: Binding affinity to human AKT1-PH domain assessed as change in beta-sheet content at 1:3 molar ratio of protein to compound by CD spectra analysis
# [17] = target: T5, Cytohesin-3 (Mus musculus) (UniProt O08967); experiment: Antagonist activity at mouse GRP1-PH domain (1 to 127 residues) assessed as reduction in PI(3,4,5)P3/GRP1-PH interaction at 50 uM after 30 mins by competitive SPR analysis relative to control
# T5 sequence (whole entry): T3 sequence (O08967 whole entry)
# [18] = target: T2, Tyrosine-protein kinase BTK; experiment: Antagonist activity at human BTK-PH domain (2 to 170 residues) assessed as reduction in PI(3,4,5)P3/BTK-PH interaction at 50 uM after 30 mins by competitive SPR analysis relative to control
# [19] = Cytotoxicity against human MDA-MB-231 cells assessed as inhibition of cell proliferation at 100 uM after 48 hrs by MTT assay; type: cell-based
SMILES,IC50 [3],IC50 (Cytohesin-3),Activity [5],inhibition [10],IC50 [11],Activity [13],inhibition [17],inhibition [18],inhibition [1],Activity [4],Activity [6],IC50 [7],Activity [8],IC50 [9],inhibition [11],Emax at 48 h [12],Activity [14],inhibition [15],Activity [16],other results
N=C(N)NC(=N)N/C(=N/O)c1nonc1N,10.9 µM,24.9 µM,Active,95%,1.85 µM,Not Active,56%,40%,Dose-dependent effect,190 nm,Not Active,54 µM,Active,28 µM,Dose-dependent effect,–,Active,Active,Active,"inhibition at 48 h, 100 µM [19]: 10%"
N=C(N/C(=N/O)c1nonc1N)c1ccccc1N,3.18 µM,16.6 µM,Active,74%,8.61 µM,Not Active,59%,79%,–,–,–,–,–,–,–,20%,–,–,–,–
N=C(N/C(=N/O)c1nonc1N)c1ccccc1Br,–,–,Active,80%,16.4 µM,Not Active,–,–,–,–,–,–,–,–,–,20%,–,–,–,–

# Now from value to compound, other results behind:
IC50 [3],IC50 (Cytohesin-3),Activity [5],inhibition [10],IC50 [11],Activity [13],inhibition [17],inhibition [18],SMILES,inhibition [1],Activity [4],Activity [6],IC50 [7],Activity [8],IC50 [9],inhibition [11],Emax at 48 h [12],Activity [14],inhibition [15],Activity [16],other results
46.5 µM,11.5 µM,Active,92%,3.23 µM,Not Active,67%,11%,N=C(N/C(=N/O)c1nonc1N)N1CCCN=C1N,Dose-dependent effect,190 nm,Not Active,28 µM,Active,5 µM,Dose-dependent effect,20%,Active,Active,Active,inhibition [2]: Active
–,11.5 µM,Active,54%,7.19 µM,Not Active,55%,–,N=C(N/C(=N/O)c1nonc1N)c1ccccc1,–,–,–,–,–,–,–,20%,–,–,–,–
